Consider one molecule from ChEMBL document CHEMBL3886423, “Nitrogen-containing compounds and pharmaceutical compositions thereof for the treatment of atrial fibrillation” (2015).

The assay deals with Potassium voltage-gated channel subfamily A member 5 (Homo sapiens, UniProt P22460). The assay is described as follows: Inhibition Assay: CHO-K1 cell lines stably expressing human Kv1.5 channels were prepared in the following manner.Full-length human Kv1.5 cDNA was cloned from a human heart cDNA library (produced by Stratagene). The obtained human Kv1.5 sequence corresponds to the sequence described in FASEB J. 5, 331-337 (1991).The obtained human Kv1.5 cDNA was inserted into a plasmid encoding a CMV promoter and a G418 resistance marker to produce a Kv1.5 expression vector. The human Kv1.5 expression vector was transfected into CHO-K1 cells by the lipofectamine method. After culturing the cells in an F-12 medium (produced by Invitrogen Corp.) containing 10% FBS (produced by Invitrogen Corp.) for 3 or 4 days, the medium was replaced with a FBS-containing F-12 medium that included 1,000 ug/ml of G418 (produced by Invitrogen Corp.), and single colonies were isolated. The amount of Kv1.5 channel expression in the single colonies was quantified at the mRNA level by RT-PCR and then quantified at the protein level. It is filed as cell-based.
Chain of Potassium voltage-gated channel subfamily A member 5 (P22460 whole entry): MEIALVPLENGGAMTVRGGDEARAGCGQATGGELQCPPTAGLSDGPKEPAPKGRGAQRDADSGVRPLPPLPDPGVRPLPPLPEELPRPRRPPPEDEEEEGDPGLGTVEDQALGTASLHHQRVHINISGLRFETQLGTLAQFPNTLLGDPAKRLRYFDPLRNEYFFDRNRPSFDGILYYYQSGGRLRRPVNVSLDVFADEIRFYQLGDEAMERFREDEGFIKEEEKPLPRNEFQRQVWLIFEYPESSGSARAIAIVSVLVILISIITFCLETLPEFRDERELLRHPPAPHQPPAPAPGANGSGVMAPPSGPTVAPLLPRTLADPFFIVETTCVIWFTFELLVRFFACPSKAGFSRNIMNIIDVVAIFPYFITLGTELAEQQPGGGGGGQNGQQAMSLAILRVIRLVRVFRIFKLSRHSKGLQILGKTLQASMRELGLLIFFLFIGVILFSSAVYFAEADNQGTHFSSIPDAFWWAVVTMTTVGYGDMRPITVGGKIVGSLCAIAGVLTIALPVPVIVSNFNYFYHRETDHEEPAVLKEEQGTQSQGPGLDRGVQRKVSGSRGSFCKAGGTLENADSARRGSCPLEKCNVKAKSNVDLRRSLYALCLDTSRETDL

`Cn1c(=O)ccc2cc(OCCCCCN(CCc3cccnc3)C(=O)c3cccnc3)ccc21` registered an IC50 of 1400 nM. That is a single-digit micromolar value.

One may read the IC50 as the concentration that inhibits the measured activity by half. High values mean weaker potency, low ones greater potency.
